Results on 38 compounds are retold here after patent US12011444B2, “N-substituted indole derivatives as PGE2 receptor modulators” (Idorsia Pharmaceuticals Ltd, priority 2015, dated 2024).

One test has as its target PTRGER4 (EP4) (Homo sapiens (Human), UniProt P35408). Description: hEP4 b-arrestin assay (PathHunter HEK 293 PTGER4 b-arrestin cells). The format is cell-based. The note with it: antagonistic activity on hEP4; mean where measured multiple times. In outline:
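Antagonist mode: compound is given 15 min at 37 °C, then 20 nM (final) PGE2 for 120 min, in HEK293 cells stably expressing EP4 fused to ProLink and β-arrestin 2 fused to EA. Recruitment read as β-gal luminescence after 1 h reagent at room temperature, as percent of DMSO control.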

A further test addresses PTGER2 (EP2) (Homo sapiens (Human), UniProt P43116). The test can be described thus: hEP2 b-arrestin assay (PathHunter HEK 293 PTGER2 b-arrestin cells). The format is cell-based. The note with it: antagonistic activity on hEP2; mean where measured multiple times. In outline:
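Readout is β-galactosidase complementation luminescence, expressed as percent of DMSO control (duplicates). PathHunter HEK293 EP2/β-arrestin 2 cells, grown 24 h, received compound for 15 min at 37 °C before a 120 min challenge with PGE2 at 5 μM final, followed by 1 h detection at room temperature.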

PTGER2 (EP2), sequence (P43116 whole entry): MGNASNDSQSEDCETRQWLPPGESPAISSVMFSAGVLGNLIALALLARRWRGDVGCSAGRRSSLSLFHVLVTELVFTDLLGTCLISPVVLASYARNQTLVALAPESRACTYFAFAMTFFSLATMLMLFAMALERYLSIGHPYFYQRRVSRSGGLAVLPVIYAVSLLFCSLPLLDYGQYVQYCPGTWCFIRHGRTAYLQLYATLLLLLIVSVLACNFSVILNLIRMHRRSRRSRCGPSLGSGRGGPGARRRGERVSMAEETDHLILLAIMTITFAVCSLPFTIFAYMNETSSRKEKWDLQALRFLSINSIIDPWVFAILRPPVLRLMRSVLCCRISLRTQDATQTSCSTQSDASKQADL
PTRGER4 (EP4), sequence (P35408 whole entry, looked up, the tested form may be a part): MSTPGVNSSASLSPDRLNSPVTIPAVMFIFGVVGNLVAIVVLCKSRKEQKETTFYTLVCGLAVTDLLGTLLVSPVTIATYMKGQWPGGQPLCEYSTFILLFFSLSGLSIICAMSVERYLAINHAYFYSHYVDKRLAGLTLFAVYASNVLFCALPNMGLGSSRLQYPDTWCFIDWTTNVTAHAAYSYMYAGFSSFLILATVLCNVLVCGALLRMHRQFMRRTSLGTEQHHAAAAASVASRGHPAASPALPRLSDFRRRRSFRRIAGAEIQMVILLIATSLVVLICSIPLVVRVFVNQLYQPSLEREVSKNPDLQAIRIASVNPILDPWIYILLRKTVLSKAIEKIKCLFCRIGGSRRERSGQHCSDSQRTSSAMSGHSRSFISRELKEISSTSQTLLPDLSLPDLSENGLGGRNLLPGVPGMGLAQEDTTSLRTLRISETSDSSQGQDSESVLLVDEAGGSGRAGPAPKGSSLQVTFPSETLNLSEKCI

Consider `Cc1cc(F)cc2c1cc(C)n2CCNc1cc(-c2cc(F)c(C(=O)O)s2)ncn1` [compound 48], for which the values for the IC50 against PTRGER4 (EP4) and at PTGER2 (EP2) were 351 nM and 24 nM, respectively.
Consider `COc1cccc2c1cc(C)n2CCNc1cc(-c2cc(F)c(C(=O)O)s2)ncn1` [compound 49], for which the IC50 worked out at 235 nM against PTRGER4 (EP4) and 4 nM against PTGER2 (EP2).
Regarding `CCOc1cc(-c2cc(NCCn3c(C)cc4ccccc43)ncn2)sc1C(=O)O` [compound 50], the IC50 came out at 161 nM at PTRGER4 (EP4) and 1 nM at PTGER2 (EP2).
On the same counts, the results for `COc1cccc2c1cc(C)n2CCNc1cc(-c2cc(C)c(C(=O)O)s2)ncn1` [compound 51] are 143 nM and 3 nM.
On the same counts, the results for `Cc1n[nH]c2cc(-c3cc(NCCn4c(C)cc5c(C)cc(F)cc54)ncn3)ccc12` [compound 52] are 583 nM and 221 nM.
Regarding `Cc1cc(F)cc2c1cc(C)n2CCNc1cc(-c2ccc3cnn(C)c3c2)ncn1` [compound 53], the IC50 against PTRGER4 (EP4) worked out at 350 nM; against PTGER2 (EP2), 98 nM.
On the same counts, the results for `Cc1nc2cc(-c3cc(NCCn4c(C)cc5c(C)ccc(F)c54)ncn3)ccc2[nH]1` [compound 54] are 305 nM and 125 nM.
Taken in the same sequence, the figures for `Cc1ccc(F)c2c1cc(C)n2CCNc1cc(-c2ccc3nccnc3c2)ncn1` [compound 55, [2-(7-Fluoro-2,4-dimethyl-indol-1-yl)-ethyl]-(6-quinoxalin-6-yl-pyrimidin-4-yl)-amine] were 570 nM and 63 nM.
On the same counts, the results for `COc1ccc(Cl)c2c1cc(C)n2CCNc1cc(-c2ccc3[nH]cnc3c2)ncn1` [compound 56] are 698 nM and 151 nM.
As for `COc1ccc(F)c2c1cc(C)n2CCNc1cc(-c2ccc3[nH]cnc3c2)ncn1` [compound 57, [6-(1H-Benzoimidazol-5-yl)-pyrimidin-4-yl]-[2-(7-fluoro-4-methoxy-2-methyl-indol-1-yl)-ethyl]-amine], the IC50 on PTRGER4 (EP4) was 113 nM; against PTGER2 (EP2), 16 nM.
On to `COc1ccc(F)c2c1cc(C)n2CCNc1cc(-c2ccc3cn[nH]c3c2)ncn1` [compound 58, [2-(7-Fluoro-4-methoxy-2-methyl-indol-1-yl)-ethyl]-[6-(1H-indazol-6-yl)-pyrimidin-4-yl]-amine], for which the values for the IC50 at PTRGER4 (EP4) and on PTGER2 (EP2) were 477 nM and 22 nM, respectively.
Regarding `Cc1cc(F)c(F)c2c1cc(C)n2CCNc1cc(-c2ccc3cc[nH]c3c2)ncn1` [compound 59, [2-(6,7-Difluoro-2,4-dimethyl-indol-1-yl)-ethyl]-[6-(1H-indol-6-yl)-pyrimidin-4-yl]-amine], the 50% inhibitory concentration (IC50) came to 485 nM against PTRGER4 (EP4) and 213 nM against PTGER2 (EP2).
On the same counts, the results for `COc1cccc2c1cc(C)n2CCNc1cc(-c2ccc3nc(C)oc3c2)ncn1` [compound 60] are 290 nM and 85 nM.
Taken in the same sequence, the figures for `Cc1cc(F)cc2c1cc(C)n2CCNc1cc(-c2ccc3c(c2)CC(=O)N3)ncn1` [compound 61] were 518 nM and 98 nM.
On the same counts, the results for `COc1cc(F)cc2c1cc(C)n2CCNc1cc(-c2ccc3c(c2)CCN3)ncn1` [compound 62, [6-(2,3-Dihydro-1H-indol-5-yl)-pyrimidin-4-yl]-[2-(6-fluoro-4-methoxy-2-methyl-indol-1-yl)-ethyl]-amine] are 32 nM and 11 nM.
In the case of `COc1cc(F)cc2c1cc(C)n2CCNc1cc(-c2ccc3cc[nH]c3c2)ncn1` [compound 63, [2-(6-Fluoro-4-methoxy-2-methyl-indol-1-yl)-ethyl]-[6-(1H-indol-6-yl)-pyrimidin-4-yl]-amine], the IC50 against PTRGER4 (EP4) worked out at 227 nM; on PTGER2 (EP2), 26 nM.
Turning to `Cc1ccc(F)c2c1cc(C)n2CCNc1cc(-c2ccc3c(c2)CC(=O)N3)ncn1` [compound 64, 5-{6-[2-(7-Fluoro-2,4-dimethyl-indol-1-yl)-ethylamino]-pyrimidin-4-yl}-1,3-dihydro-indol-2-one], the IC50 turned out to be 231 nM against PTRGER4 (EP4) and 47 nM against PTGER2 (EP2).
On the same counts, the results for `COc1ccc(Cl)c2c1cc(C)n2CCNc1cc(-c2ccc3c(c2)CCN3)ncn1` [compound 66, [2-(7-Chloro-4-methoxy-2-methyl-indol-1-yl)-ethyl]-[6-(2,3-dihydro-1H-indol-5-yl)-pyrimidin-4-yl]-amine] are 189 nM and 21 nM.
Taken in the same sequence, the figures for `COc1ccc(F)c2c1cc(C)n2CCNc1cc(-c2ccc3c(c2)CCN3)ncn1` [compound 67, [6-(2,3-Dihydro-1H-indol-5-yl)-pyrimidin-4-yl]-[2-(7-fluoro-4-methoxy-2-methyl-indol-1-yl)-ethyl]-amine] were 59 nM and 10 nM.
Taken in the same sequence, the figures for `COc1ccc(F)c2c1cc(C)n2CCNc1cc(-c2ccc3cc[nH]c3c2)ncn1` [compound 68, [2-(7-Fluoro-4-methoxy-2-methyl-indol-1-yl)-ethyl]-[6-(1H-indol-6-yl)-pyrimidin-4-yl]-amine] were 388 nM and 24 nM.
Turning to `Cc1cc(F)cc2c1cc(C)n2CCNc1cc(-c2ccc(-c3c[nH]cn3)cc2)ncn1` [compound 69, [2-(6-Fluoro-2,4-dimethyl-indol-1-yl)-ethyl]-{6-[4-(1H-imidazol-4-yl)-phenyl]-pyrimidin-4-yl}-amine], the IC50 at PTRGER4 (EP4) came out at 94 nM; against PTGER2 (EP2) it was 29 nM.
On the same counts, the results for `Cc1ccc(F)c2c1cc(C)n2CCNc1cc(-c2ccc(-c3ccn[nH]3)cc2)ncn1` [compound 70, [2-(7-Fluoro-2,4-dimethyl-indol-1-yl)-ethyl]-{6-[4-(2H-pyrazol-3-yl)-phenyl]-pyrimidin-4-yl}-amine] are 145 nM and 33 nM.
On the same counts, the results for `Cc1ccc(F)c2c1cc(C)n2CCNc1cc(-c2ccc(-c3ncc[nH]3)cc2)ncn1` [compound 71] are 758 nM and 86 nM.
On the same counts, the results for `Cc1ccc(F)c2c1cc(C)n2CCNc1cc(-c2ccc(-c3c[nH]cn3)cc2)ncn1` [compound 72, [2-(7-Fluoro-2,4-dimethyl-indol-1-yl)-ethyl]-{6-[4-(1H-imidazol-4-yl)-phenyl]-pyrimidin-4-yl}-amine] are 28 nM and 45 nM.
For the compound `Cc1ccc(F)c2c1cc(C)n2CCNc1cc(-c2ccc(-n3cccn3)cc2)ncn1` [compound 73], the results for the 50% inhibitory concentration (IC50) against PTRGER4 (EP4) and against PTGER2 (EP2) were 970 nM and 214 nM, respectively.
Taken in the same sequence, the figures for `COc1ccc(F)c2c1cc(C)n2CCNc1cc(-c2ccc3[nH]c(=O)[nH]c3c2)ncn1` [compound 74, 5-{6-[2-(7-Fluoro-4-methoxy-2-methyl-indol-1-yl)-ethylamino]-pyrimidin-4-yl}-1,3-dihydro-2H-benzo[d]imidazol-2-one] were 916 nM and 45 nM.
On the same counts, the results for `COc1cccc2c1cc(C)n2CCNc1cc(-c2ccc(-c3ccn[nH]3)cc2)ncn1` [compound 75, [2-(4-Methoxy-2-methyl-indol-1-yl)-ethyl]-{6-[4-(2H-pyrazol-3-yl)-phenyl]-pyrimidin-4-yl}-amine] are 95 nM and 7 nM.
Taken in the same sequence, the figures for `COc1cccc2c1cc(C)n2CCNc1cc(-c2ccc(-c3ncc[nH]3)cc2)ncn1` [compound 76, {6-[4-(1H-Imidazol-2-yl)-phenyl]-pyrimidin-4-yl}-[2-(4-methoxy-2-methyl-indol-1-yl)-ethyl]-amine] were 651 nM and 21 nM.
Take `COc1cccc2c1cc(C)n2CCNc1cc(-c2ccc(-c3c[nH]cn3)cc2)ncn1` [compound 77, {6-[4-(1H-Imidazol-4-yl)-phenyl]-pyrimidin-4-yl}-[2-(4-methoxy-2-methyl-indol-1-yl)-ethyl]-amine]: the 50% inhibitory concentration (IC50) worked out at 89 nM at PTRGER4 (EP4) and 8 nM on PTGER2 (EP2).
As for `COc1cccc2c1cc(C)n2CCNc1cc(-c2ccc(-n3cccn3)cc2)ncn1` [compound 78, [2-(4-Methoxy-2-methyl-indol-1-yl)-ethyl]-[6-(4-pyrazol-1-yl-phenyl)-pyrimidin-4-yl]-amine], the half-inhibitory concentration (IC50) at PTRGER4 (EP4) stood at 557 nM; against PTGER2 (EP2), 20 nM.
Taken in the same sequence, the figures for `Cc1ccc(F)c2c1cc(C)n2CCNc1cc(-c2ccc(-c3ncno3)cc2)ncn1` [compound 79, [2-(7-Fluoro-2,4-dimethyl-indol-1-yl)-ethyl]-[6-(4-[1,2,4]oxadiazol-5-yl-phenyl)-pyrimidin-4-yl]-amine] were 197 nM and 11 nM.
On the same counts, the results for `COc1ccc(Cl)c2c1cc(C)n2CCNc1cc(-c2ccc3[nH]c(C)nc3c2)ncn1` [compound 80] are 713 nM and 238 nM.
`COc1ccc(F)c2c1cc(C)n2CCNc1cc(-c2ccc3[nH]c(C)nc3c2)ncn1` [compound 81, [2-(7-Fluoro-4-methoxy-2-methyl-indol-1-yl)-ethyl]-[6-(2-methyl-1H-benzoimidazol-5-yl)-pyrimidin-4-yl]-amine]: the IC50 is 86 nM against PTRGER4 (EP4) and 44 nM on PTGER2 (EP2).
Taken in the same sequence, the figures for `COc1ccc(Cl)c2c1cc(C)n2CCNc1cc(-c2ccc3cnn(C)c3c2)ncn1` [compound 82] were 968 nM and 193 nM.
Taken in the same sequence, the figures for `Cc1cc(F)cc2c1cc(C)n2CCNc1cc(-c2ccc(-c3ccns3)cc2)ncn1` [compound 84] were 310 nM and 89 nM.
Taken in the same sequence, the figures for `COc1cccc2c1cc(C)n2CCNc1cc(-c2ccc3c(c2)CN(C)C3=O)ncn1` [compound 87] were 885 nM and 121 nM.
As for `COc1cc(F)cc2c1cc(C)n2CCNc1cc(-c2ccc3c(c2)CC(=O)N3)ncn1` [compound 88], the results for the half-maximal inhibitory concentration (IC50) against PTRGER4 (EP4) and at PTGER2 (EP2) were 185 nM and 54 nM, respectively.
Consider `COc1ccc(F)c2c1cc(C)n2CCNc1cc(-c2ccc3nc(C)oc3c2)ncn1` [compound 89], for which the 50% inhibitory concentration (IC50) on PTRGER4 (EP4) turned out to be 132 nM; on PTGER2 (EP2), 115 nM.
